BindingDB's records for doi:10.1021/jm00062a001 (Upjohn Laboratories, 1993)

Experiments:
[1] = biological target: 5-hydroxytryptamine receptor 1A (Bos taurus); experiment: Binding affinity against 5-hydroxytryptamine 1A receptor from bovine hippocampus, used [3H]8-OH-DPAT as radioligand
[2] = as above

Structure (SMILES) | Ki [1] [nM] | Ki [2] [nM]
Cc1[nH]c2cccc3c2c1C[C@@H]1C3C[C@H](NC(=O)C(C)(C)C)CN1C (some centres not stated) [SDZ-208-911] | 19 | –
CCCN1CC[C@H]2c3c(cccc3OC)CC[C@H]21 [(3aS,9bR) 9-Methoxy-3-propyl-2,3,3a,4,5,9b-hexahydro-1H-benzo[e]indole] | – | 4.4
